Results as given in patent publication US8450374B2, “Pan-antagonists for the androgen receptor and androgen receptor mutants associated with anti-androgen withdrawal” (priority 2009, dated 2013).
Residue numbers refer to the chain shown, from its start.

What was measured:
AR T877A [1] = biological target: T1, AR T877A (Homo sapiens, UniProt P10275, T878A); assay: Competitive binding assay, [3H]DHT, transfected COS-7 cells, AR T877A; design: expressed in transfected cells; host or cells: COS-7; conditions: 14 nM [3H]-DHT, read-out: Binding affinity (Ki), AR T877A
T1 sequence (P10275 1-920 T878A): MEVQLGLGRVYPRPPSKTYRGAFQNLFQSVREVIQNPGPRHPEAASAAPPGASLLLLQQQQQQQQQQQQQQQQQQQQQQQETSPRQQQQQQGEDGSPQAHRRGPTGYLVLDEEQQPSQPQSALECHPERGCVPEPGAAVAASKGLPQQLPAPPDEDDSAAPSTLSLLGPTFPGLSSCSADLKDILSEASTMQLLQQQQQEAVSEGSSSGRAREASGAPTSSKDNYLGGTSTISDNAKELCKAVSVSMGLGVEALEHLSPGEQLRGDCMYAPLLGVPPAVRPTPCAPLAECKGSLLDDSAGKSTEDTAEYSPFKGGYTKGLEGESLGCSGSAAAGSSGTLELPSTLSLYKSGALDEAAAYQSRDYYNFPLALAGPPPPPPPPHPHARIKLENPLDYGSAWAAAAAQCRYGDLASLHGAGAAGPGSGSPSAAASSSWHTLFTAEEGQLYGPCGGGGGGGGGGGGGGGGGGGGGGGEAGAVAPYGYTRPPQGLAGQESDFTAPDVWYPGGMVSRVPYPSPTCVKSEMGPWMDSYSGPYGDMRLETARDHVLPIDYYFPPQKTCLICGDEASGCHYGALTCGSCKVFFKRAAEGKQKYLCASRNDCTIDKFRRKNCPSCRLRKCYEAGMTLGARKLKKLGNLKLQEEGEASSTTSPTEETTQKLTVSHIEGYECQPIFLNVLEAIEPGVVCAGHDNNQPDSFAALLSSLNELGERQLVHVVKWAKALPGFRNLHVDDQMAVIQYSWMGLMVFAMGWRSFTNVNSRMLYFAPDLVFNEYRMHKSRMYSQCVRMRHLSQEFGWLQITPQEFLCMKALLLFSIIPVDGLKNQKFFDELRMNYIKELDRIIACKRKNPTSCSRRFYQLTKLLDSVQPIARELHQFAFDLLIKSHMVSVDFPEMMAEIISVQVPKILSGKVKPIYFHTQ
Protocol: Twenty-four hours prior to transfection, COS-7 cells were seeded at a density of 70,000 cells per well in 24-well cell culture plates and grown in phenol red free Dulbecco's Modified Eagle Medium (DMEM) supplement with 10% cosmic calf serum (CCS). The cells were transfected with a prokaryotic expression vector encoding the wild-type androgen receptor or mutant androgen receptor using Lipofectamine (Invitrogen) following manufacturer's protocol. […] Cells were washed with PBS and harvested in 2% SDS, 10% glycerol, and 10 mM Tris, pH 6.8, and radioactivity determined by scintillation counting.

AR W741C = biological target: T2, AR W741C (Homo sapiens, UniProt P10275, W742C); assay: Transcription assay (ARE-luciferase reporter) in CV-1 cells, AR W741C; format: cell-based; design: expressed in transfected cells; host or cells: CV-1; conditions: for Antagonist efficacy (RLU value at IC50), AR W741C: in competition with 200 nM DHT
T2 sequence (P10275 1-920 W742C): T1 sequence (P10275 1-920 T878A) with W742C, A878T
Protocol: (§1) Twenty-four hours prior to transfection, CV-1 cells were seeded at a density of 45,000 cells per well in 24-well cell culture plates and grown in phenol red free Dulbecco's Modified Eagle Medium (DMEM) supplemented with 10% cosmic calf serum (COS). ARE-luciferase reporter and Renilla-Luc as the internal standard and a prokaryotic expression vector encoding the wild-type androgen receptor or mutant androgen receptor were transfected with Lipofectamine (Invitrogen) following manufacturer's protocol. Five hours after transfection, media was added containing the appropriate concentrations of ligands. The cells were allowed to incubate for 38 hours before harvesting by passive lysis buffer. Cell extracts were immediately assayed using the Dual Luciferase Assay (Promega) with a Perkin-Elmer Microbeta Luminometer. […] Dose-response data was analyzed by nonlinear regression analysis using GraphPad Prism.

AR T877A [2] = biological target: T1, AR T877A; assay: Transcription assay (ARE-luciferase reporter) in CV-1 cells, AR T877A; format: cell-based; design: expressed in transfected cells; host or cells: CV-1; conditions: for Antagonist efficacy (RLU value at IC50), AR T877A: in competition with 10 nM DHT
Protocol: as §1

| SMILES | Ki (AR T877A [1]) [µM] | IC50 (AR W741C) [µM] | Antagonist efficacy (RLU value at IC50), AR W741C (AR W741C) | IC50 (AR T877A [2]) [µM] | Antagonist efficacy (RLU value at IC50), AR T877A (AR T877A [2]) |
| --- | --- | --- | --- | --- | --- |
| CN(C)CCCOc1cccc(Cc2ccccc2S(=O)(=O)CC(C)(O)C(=O)Nc2ccc(C#N)c(C(F)(F)F)c2)c1 (stereo not shown) [PAN22] | 1.75 | 5.6 ± 0.8 | (53% ± 2.1%) | 1.8 ± 0.3 | (53% ± 3.8%) |
| CC(O)(CS(=O)(=O)c1ccccc1-c1ccccc1O)C(=O)Nc1ccc(C#N)c(C(F)(F)F)c1 (stereo not shown) [PAN41, N-(4-cyano-3-(trifluoromethyl)phenyl)-2-hydroxy-3-(2′-hydroxybiphenyl-2-ylsulfonyl)-2-methylpropanamide] | – | 8 ± 2.6 | (50% ± 1.0%) | 3.9 ± 1.9 | (53% ± 10%) |
| CN(C)CCCOc1cccc(-c2ccccc2S(=O)(=O)CC(C)(O)C(=O)Nc2ccc(C#N)c(C(F)(F)F)c2)c1 (stereo not shown) [PAN52] | 4.13 | 5.9 ± 2.5 | (50% ± 1.0%) | 4 ± 2.2 | (52% ± 2.5%) |
| CN(C)CCCOc1ccc(-c2ccccc2S(=O)(=O)CC(C)(O)C(=O)Nc2ccc(C#N)c(C(F)(F)F)c2)cc1 (stereo not shown) [PAN62] | 4.3 | 15 ± 17 | (56% ± 5.7%) | 5 ± 3.2 | (56% ± 5.9%) |
